pKd: −log10 of the molar value. Like-named read-outs stand apart in the source and are kept apart here.
How the values were obtained:
[1] = system: HIV-1NL4-3; assay: HIV-1 infectivity assay in TZM-bl reporter cell line (LTR-luciferase, 48 h); type: cell-based; settings: Human immunodeficiency virus 1, TZM-bl
Method in brief: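 Compounds were tested at 1 μM in TZM-bl cells infected with HIV-1NL4-3. Infectivity was read as luciferase signal 48 h after infection and expressed as percent inhibition, normalized between DMSO-treated wild-type infection (0%) and DMSO-treated Nef-defective HIV-1 infection (100% of the Nef-dependent effect).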

[2] = system: TZM-bl cell line; type: cell-based; settings: human, 1 μM
Method in brief: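 Nef-dependent infectivity in TZM-bl cells: HIV-1NL4-3 infection with 1 μM compound, luciferase read at 48 h, normalized against DMSO wild-type and Nef-defective controls. Compound cytotoxicity in uninfected cells measured by Cell Titer Blue.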

[3] = molecular target: HIV-1 NefNL4-3 (Human immunodeficiency virus type 1 group M subtype B, UniProt P03406, A33V/T15A/T51N/V11I); assay: Surface plasmon resonance binding to recombinant full-length Nef (NL4-3); settings: for RU30/RUNef (extent of binding): response units at 30 μM relative to Nef immobilized on the SPR chip; for Nef NL4-3 Binding, SPR 1:1 or 2-site fitting KD1: 1:1 Langmuir fit where the KD2 cell says '1 to 1 fitting', else 2-site fit
[4] = 48 h, Table 1, TZM-bl cells, 1 μM, 48 h, 100% = Nef-defective HIV-1, read-out: HIV-1 Infectivity % Inhibition Norm. to Δ-Nef @ 1 μM
[5] = 1.0 μM, TZM-bl reporter cell line, Table 4, read-out: % Infectivity Inhibition
[6] = KD, M, Table 4, SPR fit 1:1 Langmuir, KD = koff/kon
[7] = Table 4, 1:1 Langmuir fit, T = 1/koff
[8] = KD, M, Table 4, SPR fit 2-step induced fit, KD = koff/kon × koff2/(koff2 + kon2)
[9] = Table 4, 2-step induced fit, T = 1/koff2
[10] = read-out: Nef NL4-3 Binding, SPR 1:1 or 2-site fitting KD2, Table 1, 2-site fit, second component
[11] = Nef NL4-3 Binding, SPR 2-state fitting KD, Table 1, 2-step induced-fit model

Row | SMILES | inhibition at 1 µM [1, 4] | Percent Viability @ 1 μM (TZM-bl cells) [2] | pKd [3] | inhibition at 1 µM [1, 5] | % Cell Viability [2] | pKd [3, 6] | T, minutes (residence time) [3, 7] | RU30/RUNef (extent of binding) [3] | Nef NL4-3 Binding, SPR 1:1 or 2-site fitting KD1 ([3]; Table 1) | pKd [3, 8] | T, minutes (residence time) [3, 9] | pKd [3, 10] | pKd [3, 11]
1 | O=C1CN(Cc2nn(-c3nc4ccccc4[nH]3)c(O)c2CCc2ccc(F)cc2)CCN1c1ccccc1 [Compound I-155, 4-{[1-(1H-1,3-benzodiazol-2-yl)-4-[2-(4-fluorophenyl)ethyl]-5-hydroxy-1H-pyrazol-3-yl]methyl}-1-phenylpiperazin-2-one] | -5.9% | 98.2% | 5.47 | – | – | – | – | – | – | – | – | – | –
2 | Cc1nn(-c2nc3ccccc3[nH]2)c(O)c1Cc1ccc(Cl)cc1F [Compound I-156, 1-(1H-1,3-benzodiazol-2-yl)-4-[(4-chloro-2-fluorophenyl)methyl]-3-methyl-1H-pyrazol-5-ol] | 15.4% | 101.5% | 8.07 | 15.4% | 100% | 8.07 | 7.34E + 02 minutes | 3.62E- 03 | – | – | – | – | –
3 | Oc1c(CCc2ccc(F)cc2)c(CN2CCOCC2)nn1-c1nc2ccccc2[nH]1 [Compound I-157, 1-(1H-1,3-benzodiazol-2-yl)-4-[2-(4-fluorophenyl)ethyl]-3-[(morpholin-4-yl)methyl]-1H-pyrazol-5-ol] | 13.2% | 100.7% | 5.11 | – | – | – | – | – | – | – | – | – | –
4 | O=C(OCc1ccccc1)N1CCC(c2nn(-c3nc4ccccc4[nH]3)c(O)c2CCc2ccc(F)cc2)CC1 [Compound I-158, benzyl 4-[1-(1H-1,3-benzodiazol-2-yl)-4-[2-(4-fluorophenyl)ethyl]-5-hydroxy-1H-pyrazol-3-yl]piperidine-1-carboxylate] | 101% | 92.0% | – | – | – | – | – | – | No Interaction | – | – | – | –
5 | O=C(OCc1ccccc1)N1CCCC(c2nn(-c3nc4ccccc4[nH]3)c(O)c2CCc2ccc(F)cc2)C1 (stereo not shown) [Compound I-160, benzyl 3-[1-(1H-1,3-benzodiazol-2-yl)-4-[2-(4-fluorophenyl)ethyl]-5-hydroxy-1H-pyrazol-3-yl]piperidine-1-carboxylate] | 33.4% | 93.7% | 11.20 | 33.4% | 93.7% | – | – | 1.74E- 02 | – | 11.62 | 7.41E + 06 minutes | 5.58 | –
6 | Cc1ccn(CCc2c(-c3ccc(C(F)(F)F)cc3)nn(-c3nc4ccc(Cl)cc4[nH]3)c2O)n1 [Compound I-163, 1-(6-chloro-1H-1,3-benzodiazol-2-yl)-4-[2-(3-methyl-1H-pyrazol-1-yl)ethyl]-3-[4-(trifluoromethyl)phenyl]-1H-pyrazol-5-ol] | 0.3% | 96.6% | 6.00 | 0.3% | 96.6% | – | – | 4.48E- 03 | – | 5.24 | 1.44E + 01 minutes | – | 5.24
7 | O=C(OCc1ccccc1)N1CCC(c2c(-c3ccc(C(F)(F)F)cc3)nn(-c3nc4ccccc4[nH]3)c2O)CC1 [Compound I-164, benzyl 4-[1-(1H-1,3-benzodiazol-2-yl)-5-hydroxy-3-[4-(trifluoromethyl)phenyl]-1H-pyrazol-4-yl]piperidine-1-carboxylate] | 64.9% | 93.6% | – | – | – | – | – | – | No Interaction | – | – | – | –
8 | Oc1c(CCc2ccc(F)cc2)c(-c2ccccc2)nn1-c1nc2cc(Cl)ccc2[nH]1 [Compound I-165, 1-(5-chloro-1H-1,3-benzodiazol-2-yl)-4-[2-(4-fluorophenyl)ethyl]-3-phenyl-1H-pyrazol-5-ol] | 25.3% | 89.6% | 6.16 | 25.3% | 89.6% | – | – | 4.14E- 02 | – | 6.20 | 5.10E + 00 minutes | – | 6.20
9 | CS(=O)(=O)c1ccc(-c2nn(-c3nc4cc(Cl)ccc4[nH]3)c(O)c2CCC2CCOCC2)cc1 [Compound I-168, 1-(5-chloro-1H-1,3-benzodiazol-2-yl)-3-(4-methanesulfonylphenyl)-4-[2-(oxan-4-yl)ethyl]-1H-pyrazol-5-ol] | 19.2% | 97.9% | 6.12 | 19.2% | 97.9% | – | – | 6.97E- 03 | – | 5.56 | 4.96E + 00 minutes | 5.30 | 5.56
10 | CS(=O)(=O)c1ccc(-c2nn(-c3nc4cc(F)ccc4[nH]3)c(O)c2CCC2CCOCC2)cc1 [Compound I-169, 1-(5-fluoro-1H-1,3-benzodiazol-2-yl)-3-(4-methanesulfonylphenyl)-4-[2-(oxan-4-yl)ethyl]-1H-pyrazol-5-ol] | -4.8% | 98.7% | 6.33 | – | – | – | – | – | – | – | – | 5.74 | 5.13
11 | COC(=O)c1ccc(CCc2c(-c3ccccc3)nn(-c3nc4cc(Cl)ccc4[nH]3)c2O)cc1 [Compound I-171, methyl 4-{2-[1-(5-chloro-1H-1,3-benzodiazol-2-yl)-5-hydroxy-3-phenyl-1H-pyrazol-4-yl]ethyl}benzoate] | 131% | 75.8% | 6.05 | 100% | 75.8% | – | – | 2.77E- 02 | – | 7.88 | 7.82E + 02 minutes | – | 7.88
12 | Oc1c(CCc2ccc(F)cc2)c(-c2ccc(F)cc2)nn1-c1nc2cc(Cl)ccc2[nH]1 [Compound I-172, 1-(5-chloro-1H-1,3-benzodiazol-2-yl)-3-(4-fluoropheny1)-4-[2-(4-fluorophenyl)ethyl]-1H-pyrazol-5-ol] | 56% | 96.5% | 6.60 | 56% | 96.5% | – | – | 4.28E- 02 | – | 7.16 | 1.73E + 01 minutes | – | 7.16
13 | Oc1c(CC2CCOCC2)c(-c2ccc(F)cc2)nn1-c1nc2cc(F)ccc2[nH]1 [Compound I-173, 1-(5-fluoro-1H-1,3-benzodiazol-2-yl)-3-(4-fluorophenyl)-4-[(oxan-4-yl)methyl]-1H-pyrazol-5-ol] | – | – | – | 97.2% | 85.7% | – | – | 5.24E- 03 | – | 9.46 | 7.12E + 04 minutes | – | –
14 | Oc1c(CC2CCOCC2)c(C2CC2)nn1-c1nc2ccccc2[nH]1 [Compound I-174, 1-(1H-1,3-benzodiazol-2-yl)-3-cyclopropyl-4-[(oxan-4-yl)methyl]-1H-pyrazol-5-ol] | 11.9% | 101.5% | 5.86 | 11.9% | 100% | 5.86 | 6.54E + 00 minutes | 3.94E- 03 | – | – | – | – | –
15 | Oc1c(CC2CCCOC2)c(-c2ccc(F)cc2)nn1-c1nc2ccccc2[nH]1 (stereo not shown) [Compound I-175, 1-(1H-1,3-benzodiazol-2-yl)-3-(4-fluorophenyl)-4-[(oxan-3-yl)methyl]-1H-pyrazol-5-ol] | – | – | – | 67.2% | 88.8% | 6.22 | 7.72E + 00 minutes | 6.67E- 04 | – | – | – | – | –
16 | Oc1c(CC2CCOCC2)c(C2CC(F)(F)C2)nn1-c1nc2ccccc2[nH]1 [Compound I-176, 1-(1H-1,3-benzodiazol-2-yl)-3-(3,3-difluorocyclobutyl)-4-[(oxan-4-yl)methyl]-1H-pyrazol-5-ol] | – | – | – | 0% | 98.4% | 5.65 | 5.08E + 00 minutes | 1.52E- 03 | – | – | – | – | –
17 | Oc1c(CC2CCOCC2)c(CCC2CCOCC2)nn1-c1nc2ccccc2[nH]1 [Compound I-178, 1-(1H-1,3-benzodiazol-2-yl)-3-[2-(oxan-4-yl)ethyl]-4-[(oxan-4-yl)methyl]-1H-pyrazol-5-ol] | – | – | – | 0% | 97.9% | – | – | 8.86E- 03 | – | 4.96 | 7.72E + 00 minutes | – | –
18 | CC(C)(C)c1nn(-c2nc3ccccc3[nH]2)c(O)c1CC1CCOCC1 [Compound I-180, 1-(1H-1,3-benzodiazol-2-yl)-3-tert-butyl-4-[(oxan-4-yl)methyl]-1H-pyrazol-5-ol] | – | – | – | 74.8% | 100% | 5.14 | 2.48E + 00 minutes | 2.62E- 03 | – | – | – | – | –
19 | Oc1c(CCC2CCOCC2)c(-c2ccc(F)cc2)nn1-c1nc2ccccc2[nH]1 [Compound I-182, 1-(1H-1,3-benzodiazol-2-yl)-3-(4-fluorophenyl)-4-[2-(oxan-4-yl)ethyl]-1H-pyrazol-5-ol] | – | – | – | 100% | 90% | – | – | 1.11E- 02 | – | 5.35 | 9.98E + 00 minutes | – | –
